Experiments:
[1] = system: peptide-pulsed Epstein-Barr Virus-transformed B-lymphoblastoid cell line cells; test: Chromium release assay, subject 2 T-cell clones as effectors; assay type: cell-based, human; details: clones #76-2 and #78-2; three allogeneic B-LCL expressing HLA-B62; 10 μM peptide
Method: (§1) To identify putative restricting Human Leukocyte Antigen class I molecule, enzyme-linked immunospot assays were performed, as described above, using autologous Epstein-Barr Virus-transformed B-lymphoblastoid cell line cells sharing one or a few class I molecules with the subjects. The results were confirmed using chromium release assays in which at least two autologous Epstein-Barr Virus-transformed B-lymphoblastoid cell line cells expressing the putative Human Leukocyte Antigen class I molecule were tested. The Epstein-Barr Virus-transformed B-lymphoblastoid cell line cells were labeled with 100 μCi of sodium chromate (Na2^51CrO4), and were incubated with 10 μM of positive peptide. After plating the cells in 96-wells plate at 3×10^3/well, effector cells were added at multiple effector to target cell (E:T) ratios. After 5 hr of incubation, the supernatants were harvested and radioactivity was counted with a gamma counter (Packard Instruments, Meriden, Conn.). Percentage specific lysis was calculated as described (39).

[2] = system: HPV 16 E6 peptide-specific T-cell clones (subject 2); assay type: cell-based, human
[3] = system: Human Leukocyte Antigen class I molecule; test: Identification of the restricting Human Leukocyte Antigen molecules; assay type: cell-based
Method: as §1

## KFYSKISEY (E6 75-83 peptide from immunodominant epitope region of Human Papilloma Virus 16 E6 protein) [SEQ ID NO. 1]
[1]
  lysis of peptide-pulsed B-LCL in chromium release assay: lysed
[2]; 10^−5M to 10^−10M
  serial dilution of the two peptides in enzyme-linked immunospot assay: equivalent
[2]; clones #76-2 and #78-2, autologous and five allogeneic HLA-B62 B-LCL, 10 μM
  recognition of peptide-pulsed B-LCL by E6 75-83-specific T cell clones: recognized
[2]; subject 2 T-cell clones
  number of spot forming units, 9-mer compared with surrounding 10-mers and 8-mers within: comparable number of spot forming units
  spot forming units per well, series of 9-mer peptides within E6 71-85: most number of spot forming units per well
[3]
  Human Leukocyte Antigen Restriction Element: HLA-B62
